Data reported in PubChem BioAssay (NCI).
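1) Cells in 96-well plates. 2) Compound, 48 h, 5 concentrations. 3) Linear interpolation between surrounding doses. 4) Unreached endpoint = highest concentration. TGI is the concentration that stops growth completely.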

Legend:
Assay in all cases: NCI-60 cell line screen, 48 h
NCI-H23 lung = tested on: NCI-H23 lung
RPMI-8226 leukemia = tested on: RPMI-8226 leukemia
SW-620 colon = tested on: SW-620 colon
HCC-2998 colon = tested on: HCC-2998 colon
COLO 205 colon = tested on: COLO 205 colon
NCI/ADR-RES ovarian = tested on: NCI/ADR-RES ovarian
HOP-62 NSCLC = tested on: HOP-62 NSCLC
U251 CNS = tested on: U251 CNS
A498 renal = tested on: A498 renal
KM12 colon = tested on: KM12 colon
SN12C renal = tested on: SN12C renal
UACC-257 melanoma = tested on: UACC-257 melanoma
CAKI-1 renal = tested on: CAKI-1 renal
MDA-MB-231 breast = tested on: MDA-MB-231 breast
HCT-116 colon = tested on: HCT-116 colon
SR leukemia = tested on: SR leukemia
OVCAR-3 ovarian = tested on: OVCAR-3 ovarian
SF-268 CNS = tested on: SF-268 CNS
HOP-92 NSCLC = tested on: HOP-92 NSCLC
CCRF-CEM leukemia = tested on: CCRF-CEM leukemia
SF-539 CNS = tested on: SF-539 CNS
LOX IMVI melanoma = tested on: LOX IMVI melanoma
MCF7 breast = tested on: MCF7 breast
ACHN renal = tested on: ACHN renal
MOLT-4 leukemia = tested on: MOLT-4 leukemia
SNB-75 CNS = tested on: SNB-75 CNS
SK-MEL-5 melanoma = tested on: SK-MEL-5 melanoma
IGROV1 ovarian = tested on: IGROV1 ovarian
HT29 colon = tested on: HT29 colon
OVCAR-5 ovarian = tested on: OVCAR-5 ovarian
UO-31 renal = tested on: UO-31 renal
PC-3 prostate = tested on: PC-3 prostate
HS 578T breast = tested on: HS 578T breast
DU-145 prostate = tested on: DU-145 prostate
M14 melanoma = tested on: M14 melanoma
OVCAR-8 ovarian = tested on: OVCAR-8 ovarian
NCI-H460 lung = tested on: NCI-H460 lung
MDA-N = tested on: MDA-N
HL-60(TB) leukemia = tested on: HL-60(TB) leukemia
SK-MEL-2 melanoma = tested on: SK-MEL-2 melanoma
UACC-62 melanoma = tested on: UACC-62 melanoma
NCI-H522 lung = tested on: NCI-H522 lung
SF-295 CNS = tested on: SF-295 CNS
T-47D breast = tested on: T-47D breast
OVCAR-4 ovarian = tested on: OVCAR-4 ovarian
MALME-3M melanoma = tested on: MALME-3M melanoma
A549 NSCLC = tested on: A549 NSCLC
TK-10 renal = tested on: TK-10 renal
BT-549 breast = tested on: BT-549 breast
SK-MEL-28 melanoma = tested on: SK-MEL-28 melanoma
MDA-MB-435 = tested on: MDA-MB-435
786-0 renal = tested on: 786-0 renal
EKVX NSCLC = tested on: EKVX NSCLC
RXF 393 renal = tested on: RXF 393 renal
K-562 leukemia = tested on: K-562 leukemia
NCI-H226 lung = tested on: NCI-H226 lung
HCT-15 colon = tested on: HCT-15 colon
SNB-19 CNS = tested on: SNB-19 CNS
SK-OV-3 ovarian = tested on: SK-OV-3 ovarian

Measured: TGI

CN1C(=O)c2ccccc2NC(=O)C12O[C@@H]2c1ccccc1 (stereo partly drawn)
> 100 µM: NCI-H23 lung | RPMI-8226 leukemia | SW-620 colon | HCC-2998 colon | COLO 205 colon | NCI/ADR-RES ovarian | HOP-62 NSCLC | U251 CNS | A498 renal | KM12 colon | SN12C renal | UACC-257 melanoma | CAKI-1 renal | MDA-MB-231 breast | HCT-116 colon | SR leukemia | OVCAR-3 ovarian | SF-268 CNS | HOP-92 NSCLC | CCRF-CEM leukemia | SF-539 CNS | LOX IMVI melanoma | MCF7 breast | ACHN renal | MOLT-4 leukemia | SNB-75 CNS | SK-MEL-5 melanoma | IGROV1 ovarian | HT29 colon | OVCAR-5 ovarian | UO-31 renal | PC-3 prostate | HS 578T breast | DU-145 prostate | M14 melanoma | OVCAR-8 ovarian | NCI-H460 lung | MDA-N | HL-60(TB) leukemia | SK-MEL-2 melanoma | UACC-62 melanoma | NCI-H522 lung | SF-295 CNS | T-47D breast | OVCAR-4 ovarian | MALME-3M melanoma | A549 NSCLC | TK-10 renal | BT-549 breast | SK-MEL-28 melanoma | MDA-MB-435 | 786-0 renal | EKVX NSCLC

CCN1CN(c2ccccc2)C2(CCN(CC3COc4ccccc4O3)CC2)C1=O (stereo not drawn)
40 µM: RXF 393 renal
45.4 µM: NCI-H460 lung
76.6 µM: UO-31 renal
30.7 µM: SK-MEL-2 melanoma
71.2 µM: ACHN renal
> 100 µM: NCI-H23 lung | SW-620 colon | NCI/ADR-RES ovarian | HOP-62 NSCLC | U251 CNS | SN12C renal | UACC-257 melanoma | CAKI-1 renal | K-562 leukemia | SR leukemia | OVCAR-3 ovarian | SF-268 CNS | IGROV1 ovarian | OVCAR-5 ovarian | DU-145 prostate | SNB-19 CNS | OVCAR-8 ovarian | SF-295 CNS | A549 NSCLC | TK-10 renal | 786-0 renal | SK-OV-3 ovarian
4.78 µM: MDA-MB-231 breast
54.2 µM: HCT-15 colon
77.6 µM: MCF7 breast
60.2 µM: HS 578T breast
83.3 µM: CCRF-CEM leukemia
67.4 µM: T-47D breast
36.5 µM: KM12 colon
31.5 µM: COLO 205 colon
94.1 µM: NCI-H226 lung
46.7 µM: HT29 colon
57.6 µM: MOLT-4 leukemia
94 µM: SNB-75 CNS
57.9 µM: RPMI-8226 leukemia
6.54 µM: MDA-N
72.5 µM: A498 renal
45.5 µM: HL-60(TB) leukemia
67.2 µM: MDA-MB-435
32.1 µM: SK-MEL-5 melanoma
4.99 µM: M14 melanoma
36 µM: MALME-3M melanoma
79.2 µM: PC-3 prostate
73.4 µM: UACC-62 melanoma
33.3 µM: SF-539 CNS
45.2 µM: LOX IMVI melanoma
34.7 µM: BT-549 breast
87.3 µM: SK-MEL-28 melanoma
43.7 µM: HCT-116 colon
40.8 µM: NCI-H522 lung
